Publication PMC9054876 (Cancer Chemotherapy and Pharmacology, 2022)

Key:
[1] = clinical; conditions: for CLpar: typical individual, 500 mg
From the text: This step included food status, formulation, and oral dose level.
In the second step, the remaining covariates were further evaluated, including demographics (age, body weight, race, and sex), patient characteristics (disease status, i.e., patient or healthy participant, tumor type, National Cancer Institute Organ Dysfunction Working Group [NCI-ODWG] classification of liver impairment, and baseline tumor burden), laboratory values (serum albumin, total bilirubin, alkaline phosphatase, international normalized ratio, and total protein), and co-medications (opioid analgesics and gefitinib).
SCM was applied in the structural covariate model building step, followed by an adaptive scope reduction (ASR) SCM in the following covariate searching step to reduce run times. For the SCM procedures, the forward selection p value was set to 0.01, and the backward elimination p value to 0.001. The ASR threshold p value was set to the same as the forward p value of 0.01.
Continuous covariate relationships were coded as power models (Formula 1), and categorical covariates were coded as a fractional difference to the most common category (Formula 2). An alternative ‘hockey-stick’ parameterization (Formula 3) was tested for dose as continuous covariate on bioavailability of the parent drug (Par).1 ParCovm=Cov/Covref^θm 2 ParCovm=1ifCov=Covref1+θmifCov≠Covref 3 ParCovm=1+θm1·Cov-CovrefifCov≤Covref1+θm2·Cov-CovrefifCov>Covref
Model selection and qualification was based on the changes in the objective function value (OFV) provided by NONMEM and the visual inspection of graphical diagnostics, including goodness-of-fit plots and visual predictive checks (VPCs).
The population PK analyses were performed using NONMEM version 7.3.0. Data management and further processing of NONMEM output were performed using R version 3.3.3. VPCs and covariate model building were run on PsN version 4.4.8.
The IIV terms are included on CLpar, first-order absorption rate constant (ka), zero-order absorption duration (D1), and bioavailability of parent drug (Fpar).

[2] = cited from earlier work
[3] = set-up: method as in PMID 32562690; conditions: cited from earlier work
[4] = set-up: method as in manuscript in preparation; conditions: 500 mg single dose TF2, non-compartmental analysis; ref manuscript in preparation; cited from earlier work
[5] = high-fat meal, healthy participants; cited from earlier work
[6] = cited from earlier work; remark: listed apart in the source
[7] = clinical; conditions: human, in vivo, po
From the text: (§1) The association or lack of association between the observed covariates and model-derived secondary PK parameters [e.g., area under the concentration–time curve over the dosing interval at steady state (AUCτ,ss)] for patients with cancer was illustrated using bootstrap analysis-based forest plots (see ESM 1 for method details). In the bootstrap analysis, N = 100 new data sets were generated with replacement from the analysis data set. The sampling was stratified by study, and the final models were fit to each of the resampled data sets. […] For categorical covariates, the mean and its 5th and 95th percentiles of PK parameters for each category were computed. For continuous covariates, the mean and its 5th and 95th percentiles of PK parameters, corresponding to the 0–5th and 95–100th percentile of the covariate, were computed. The impact of the covariates in the forest plots were presented on a relative scale. The reference value was the arithmetic mean of the corresponding PK parameter.
(§2) The derivation of these secondary PK parameters is based on a bootstrap analysis (see following). Only participants with at least one observation above the lower limit of quantitation in the analysis data set were included in the derivation of the secondary parameters.
(§3) In the bootstrap analysis, N = 100 new data sets (with the participants in the analysis data sets with at least one observation with the same number of participants as in the analysis data sets) were drawn with replacement from the analysis data sets. The sampling was stratified by study. The final models were fit to each of the resampled data sets.
(§4) For each of the N = 100 population parameter vectors, the n observed covariate vectors were used to predict the corresponding n primary and secondary parameters, where n = the unique combination of ID and the time-varying variables formulation, μ-opioids and dose (while National Cancer Institute Organ Dysfunction Group (NCI-ODG) class was handled as a time-varying covariate in the stepwise covariate method (SCM), its baseline value was used in the derivation of the forest plots since NCI-ODG class is derived from total bilirubin, alanine aminotransferase and aspartate aminotransferase, which were also assumed to be time-constant in the forest plot).
(§5) Descriptive statistics (mean, standard deviation and the 5th and 95th percentiles) were calculated for the n secondary parameters. These summary statistics are the bootstrap estimates of the typical individual value, standard error, and 90% confidence interval of the secondary parameters.

[8] = oral, cited from earlier work
[9] = Bootstrap-derived secondary PK parameters, forest plots and model-based simulation
From the text: as §1, §2, §3, §4, §5

[10] = CF1 vs typical participant taking TF2 with a non-high-fat meal
[11] = fasting vs typical participant taking TF2 with a non-high-fat meal
[12] = final model, reference patient, multiplied by 0.9
[13] = fractional difference to reference category
[14] = bootstrap predicted, cancer patients
[15] = bootstrap predicted, cancer patients, 250 mg/day

CN1CCC(COc2cnc(-c3cccc(Cn4nc(-c5cccc(C#N)c5)ccc4=O)c3)nc2)CC1 [Tepotinib]
CF1 covariate on ka ([1]; CF1 vs TF2): –0.442 | reduction of Fpar [1, 10]: 65.6% | reduction of ka [1, 10]: 44.2% | TF1* covariate on ka ([1]; TF1* (finely micronized) vs TF2): 0.674 | TF1 covariate on ka ([1]; TF1 vs TF2): 0.305 | TF3 covariate on Fpar ([1]; TF3 vs TF2): 0.154 | CF1 covariate on Fpar ([1]; capsule formulation 1 (non-micronized) vs TF2): –0.656 | influence of gefitinib co-administration on tepotinib PK ([1]; covariate analysis): No statistically significant influence | reduction of Fpar [1, 11]: 20.9% | reduction of ka [1, 11]: 56.1% | DOSE covariate on Fpar ([1]; final model): –0.0412 /100 mg | D1 (zero-order absorption duration) ([1]; final model, reference patient): 4.09 h | CLpar/F (apparent clearance) ([1]; final model, reference patient, 500 mg TF2, fed non-high-fat meal, multiplied by 0.9 for salt to base): 20.4 L/h | ka (first-order absorption rate constant) ([1]; final model, reference patient, TF2, fed non-high-fat meal): 0.278 h⁻¹ | Qpar/F [1, 12]: 1.32 L/h | Vp,par/F [1, 12]: 1180 L | Vc,par/F ([1]; final model, reference patient, multiplied by 0.9 for salt to base): 1020 L | Colorectal cancer covariate on CLpar/F ([1]; fractional difference): –0.281 | Hepatocellular carcinoma covariate on CLpar/F ([1]; fractional difference): 0.130 | NCI-ODG class > 0 covariate on Fpar ([1]; fractional difference): –0.0729 | Non-small cell lung cancer covariate on Vc,par/F ([1]; fractional difference): –0.232 | Patient/participant covariate on Vp,par/F ([1]; fractional difference): –0.810 | Study MS200095-0028 covariate on CLpar/F ([1]; fractional difference): –0.115 | μ-Opioids covariate on CLpar/F ([1]; fractional difference): –0.167 | Fasting state covariate on D1 [1, 13]: –0.370 | Fasting state covariate on Fpar [1, 13]: –0.209 | Fasting state covariate on ka [1, 13]: –0.561 | High-fat meal covariate on Fpar [1, 13]: 0.320 | half-life ([1]; human, in vivo): ~32 h | exposure increase between 500 and 1400 mg ([1]; mostly CF2, Study 001): doubling | reduction of bioavailability by liver dysfunction (NCI-ODWG) ([1]; oral administration): 7.29% | Age covariate on Vc,par/F ([1]; power model): 0.219 | Body weight at baseline covariate on Fpar ([1]; power model): –0.475 | INR at baseline covariate on Qpar/F ([1]; power model): 3.81 | Serum albumin at baseline covariate on Qpar/F ([1]; power model): 4.14 | eGFR at baseline covariate on CLpar/F ([1]; power model): 0.199 | time dependence of PK ([1]; single dose vs steady state): time-independent | CLpar ([1]; eGFR 30 mL/min/1.73 m^2): 16.2 L/h | CLpar ([1]; eGFR 60 mL/min/1.73 m^2): 18.6 L/h | CLpar ([1]; eGFR 80 mL/min/1.73 m^2): 19.7 L/h | CLpar ([1]; eGFR 110 mL/min/1.73 m^2): 20.9 L/h | dose proportionality of PK ([1]; up to the therapeutic dose of 500 mg): approximately dose-proportional | share of administered dose of any single metabolic pathway ([2]; based on in vitro studies and human mass balance data): ≤ 25% | absolute bioavailability [2]: 72% | contribution to total circulating radioactivity [2]: 55% | total radiolabeled material excreted via feces ([2]; mass balance study): 77.9% | urinary excretion recovery ([2]; mass balance study): 13.6% | solubility [3]: low-solubility | total plasma AUC lower in moderate hepatic impairment than healthy participants [4]: 13% | increase in tepotinib exposure in the presence of food [5]: two-fold | effect of co-administration of tepotinib with gefitinib on exposure [6]: no effect | AUC ([7]; 250 mg/day): 12300 ng·h/mL | half-life ([7]; 500 mg): 102 h | AUC ([7]; 500 mg/day): 22300 ng·h/mL | Cmax ([7]; 500 mg/day): 1240 ng/mL | time to maximum concentration (Tmax) ([8]; steady state, fed conditions): approximately 8 h | terminal elimination half-life [8]: approximately 32 h | CLpar, mean ([9]; bootstrap predicted typical individual, cancer patients, multiplied by 0.9): 19.3 L/h | Fpar actual doses, mean [9, 14]: 1.12 | Tss (time to steady-state), mean [9, 14]: 128.3 h | t1/2eff (effective half-life), mean [9, 14]: 32.1 h | Fpar 250 mg, mean ([9]; bootstrap predicted, cancer patients, 250 mg): 1.04 | C max, ss 250 mg, mean [9, 15]: 683 ng/mL | Ctrough,ss 250 mg, mean [9, 15]: 523 ng/mL | Fpar 500 mg, mean ([9]; bootstrap predicted, cancer patients, 500 mg): 0.94 | Ctrough,ss 500 mg, mean ([9]; bootstrap predicted, cancer patients, 500 mg/day): 952 ng/mL | Vss, mean ([9]; bootstrap predicted, cancer patients, multiplied by 0.9): 2,091 L | AUCτ,ss higher in moderate renal impairment ([9]; eGFR 39.4-59 vs mean observed eGFR 99.8 mL/min/1.73 m^2, forest plot): 2% | effect of covariates on tepotinib AUC ([9]; race, hepatic impairment, renal impairment, age, sex, body weight, opioid analgesics or gefitinib, 90% CIs within 80–125%): no or marginal effects

COc1cc2ncnc(Nc3ccc(F)c(Cl)c3)c2cc1OCCCN1CCOCC1 [gefitinib, reference compound]
effect of co-administration of tepotinib with gefitinib on exposure [6]: no effect
